According to US12390423B2 (priority 2019, dated 2025):
“Also recorded” adds a separate entry of the source.

Key:
[1] = Treatment model of diet-induced obesity (DIO) in mice: body and fat pad weights; format: in vivo, C57BL/6J mice; settings: HFD mice, AvoB 100 mg/kg b.w. oral gavage twice weekly for 5 weeks, vs HFD-control
Method: For the treatment study, twelve-week-old male C57BL/6J mice were purchased from Jackson Laboratory (Bar Harbor, ME) and allowed to acclimatize for 1 week. After acclimatization, mice received either a high-fat diet (HFD) (60% kcal from lard; Research Diet D12492; Research Diets, USA) or a standard diet (10-13% kcal from fat; Teklad 2014; Envigo, USA) for eight weeks. […] Animal weights were monitored twice weekly. At study completion, animals were euthanized (10-12 h into their dark cycle) via CO2 followed by exsanguination, after which tissue and blood was collected.

INS-1 (832/13) cells [2] = assay: Mitochondrial ROS (MitoSOX) and membrane potential (JC-1) in INS-1 (832/13) cells; format: cell-based, rat; settings: 25 μM AvoB, 0.5 mM palmitate, 24 h
Method: For all ROS studies, INS-1 (832/13) cells and C2C12 myotubes were treated with or without palmitate and FAO inhibitors for 24 h in low glucose cell culture media as described for the FAO assay. After treatment, cells were trypsinized and re-suspended in PBS containing 5 μM of the fluorescent dye MitoSOX® (Molecular Probes, Invitrogen) and allowed to incubate for 5-15 minutes in a humidified atmosphere containing 5% CO2 at 37° C. Cells were then washed in PBS, placed in a 96 well plate and fluorescence was measured by flow cytometry. ROS was quantified by normalizing the mean fluorescence values of live gated cells to vehicle control. Mitochondrial membrane potential (MMP) in INS-1 (832/13) and C2C12 myotubes was measured using the cationic fluorescent dye JC-1 (Molecular Probes). […] JC-1 fluoresces green in the cytosol where it exists as a monomer, after entering the mitochondria JC-1 monomers form J aggregates and fluoresce red, thus the red/green fluorescence ratio is used to determine MMP. […] Cells were then washed in PBS, placed in a 96 well plate and fluorescence was measured by flow cytometry. MMP was quantified by normalizing the mean fluorescence values of live gated cells to vehicle control. […] Cells were treated, washed and collected as described and incubated with 0.35 μM NAO and green fluorescence was measured using flow cytometry. […]

INS-1 (832/13) cells [3] = assay: Glucose stimulated insulin secretion (GSIS) in INS-1 (832/13) cells; format: cell-based, rat; settings: 0.5 mM palmitate 24 h, AvoB 25 μM, ETO 100 μM
Method: To measure glucose stimulated insulin secretion (GSIS) in INS-1(832/13) cells a standard protocol was adopted. […] After treatments were complete, cell media was replaced with KRB (Krebs-Ringer Bicarbonate) buffer. Cells were then challenged with 3 mM glucose for 2 h in KRB buffer after which 500 μL KRB buffer was collected and frozen in −80° C. until analysis. For another 2 h, cells were challenged with 16 mM glucose after which 500 μL KRB was collected and frozen in −80° C. until analysis. The amount of insulin released into the KRB buffer was determined by an ELISA kit (Millipore, Rat/Mouse Insulin Detection kit). Data was normalized for cellular protein content, as determined by the Micro-BCA Protein Assay kit. The glucose-dependent insulin secretory index (GSIS16/3), defined as the ratio between the insulin secretion at 16 mM (stimulatory, surrogate to postprandial glucose levels) and 3 mM (basal, surrogate to fasting glucose levels) glucose was also calculated.

[4] = tested on: pyruvate dehydrogenase (PDH); assay: Pyruvate dehydrogenase (PDH) activity assay, gastrocnemius muscle lysates of DIO mice; format: in vivo, C57BL/6J mice; settings: ad libitum HFD mice, AvoB 100 mg/kg b.w. twice weekly, endpoint
Method: After mice were euthanized, muscle tissues were freeze-clamped and flash-frozen in liquid nitrogen. The PDH activity from flash-frozen whole gastrocnemius muscle lysates was measured using a colorimetric microplate assay kit (ab109902, Abcam, Cambridge, MA, USA) following the manufacturer's protocol and as previously described (see reference number 12). Briefly, PDH proteins from whole gastrocnemius muscle lysates (lysed in the presence of 10 mM sodium fluoride (NaF) preserve the phosphorylated status of PDH or to determine native PDH activity as a result of HFD feeding) were immunocaptured on a microplate by loading equal amounts of protein for each sample. PDH activity was then determined spectrophotometrically by monitoring the reduction of NAD+ to NADH, coupled to the reduction of a reporter dye at an absorbance of 450 nm.

avocatin B [AvoB]
Gonadal and mesenteric fat pad (GFP and MFP) weights [1]: reductions in both gonadal and mesenteric fat pad (GFP and MFP) weights | Mouse weight at study completion [1]: weighed significantly less than HFD-control mice | Mitochondrial membrane potential (MMP, JC-1) (INS-1 (832/13) cells [2]): lowers palmitate-induced increases | Mitochondrial superoxide levels (MitoSOX Red) (INS-1 (832/13) cells [2]): lowers palmitate-induced increases in mitochondrial superoxide levels | Glucose stimulated insulin secretion (GSIS) (INS-1 (832/13) cells [3]): rescued; also recorded: GSIS was higher | Native PDH activity in gastrocnemius muscle [4]: restored to that of lean, STD mice
